Assay results from patent US20260137754A1, “APPLICATION OF A COMBINATION DRUG IN THE TREATMENT OF PATHOGENIC BACTERIAL PERSISTENT INFECTIONS” (priority 2023, published 2026).
≈ marks a conversion by molar mass, not a printed value. Where “and” joins values, the source holds several entries; their conditions need not be identical. Equal values may be shown once. Read-outs that look alike come from different tables or passages of the source.

How the values were obtained:
[1] = tested on: wild-type E. coli BW25113; assay: Minimum inhibitory concentration (MIC); type: cell-based, Escherichia coli
[2] = tested on: wild-type E. coli BW25113; assay: Survival / persistence level (CFU) of stationary-phase culture diluted 1:20 into fresh LB with antibiotic; type: cell-based, Escherichia coli; settings: for persistence survival level / persistence rate: monotherapy 10 hours, kanamycin 3 MIC, ciprofloxacin 20 MIC, ampicillin 20 MIC, polymyxin B 3 MIC
Protocol: (§1) The proportion of persisting cells in bacterial cultures typically reaches higher levels during the nutrient-depleted stationary phase. To investigate the persistence capacity of the model bacterium Escherichia coli(E. coli) against most bactericidal antibiotics, the standard BW25113 strain with E. coli K12 background was cultured at 37° C. in commercially available LB liquid medium until reaching the stationary phase. The culture was then inoculated at a 1:20 dilution into fresh LB liquid medium containing antibiotics at multiple dilutions of the minimum inhibitory concentration (MIC). Samples were collected after different treatment durations, and residual antibiotics were removed through two centrifugations. After tenfold serial dilution in physiological saline, the cultures were plated on LB agar plates without antibiotics. Survival colony-forming units (CFUs) were counted after two days of incubation, with initial CFU values before antibiotic addition serving as controls to calculate bacterial survival rates and persistence levels using conventional experimental methods. Testing for other bacteria followed the same protocol.
The culture was then incubated at 37° C. with shaking at 160 rpm for 10 hours. […] Each measurement was obtained from at least three independent experiments, with error bars representing the mean±standard deviation.

[3] = tested on: E. coli hipA7 strain; settings: for survival rate / viability: monotherapy 10 hours, kanamycin 3 MIC, ciprofloxacin 20 MIC, ampicillin 20 MIC, polymyxin B 3 MIC, mitomycin C 3 MIC
Protocol: as §1
(§2) Each measurement was obtained from at least three independent experiments, with error bars representing the mean±standard deviation.
as §2, §2

[4] = cited from earlier work
[5] = tested on: E. coli hipA7 cells; assay: Membrane potential, DiSC3(5) dye, flow cytometry; type: cell-based, Escherichia coli; settings: 0.9 μg/mL polymyxin B, 20 μg/mL kanamycin, combined or alone; up to 8 hours
Protocol: As represented by the combination antibiotic containing 0.9 μg/mL polymyxin B and 20 μg/mL kanamycin, the cell membrane damage in hipA7 cultures during stress-induced antibiotic killing was assessed. […] Samples were incubated at 37° C. with 160 rpm shaking for 8 hours. During sampling, 2.5 μM DiSC3 (5) was added in the first 10 minutes of each time point, followed by washing to remove the drugs and unbound dye. Flow cytometry was used to measure fluorescence intensity, with 100,000 cells analyzed per sample. […] Representative data from one of the experiments were selected for plotting.

[6] = tested on: E. coli hipA7 cells; assay: Cell membrane damage, propidium iodide (PI) staining; type: cell-based, Escherichia coli; settings: single drug
Protocol: Samples were incubated at 37° C. with 160 rpm shaking for 8 hours.
Parallel samples were treated with corresponding concentrations of individual drugs. Samples were collected at 0, 2, and 4 hours, with the addition of 5 μM PI dye 10 minutes prior to each collection time point. After washing with saline to remove antibiotics and extracellular dyes, cellular fluorescence intensity was analyzed by flow cytometry, with 100,000 cells analyzed per sample. The results from three independent experiments were basically the same. Representative data from one of the experiments were selected for plotting.

[7] = Escherichia coli, BW25113, read-out: MIC
[8] = clinical dosage guideline 2 mg/kg

Molecule	MIC [1, 7] [µg/mL]	persistence survival level / persistence rate [2] [%]	survival rate / viability [3]	MIC [1] [µg/mL]	also measured
CC1(C)S[C@@H]2[C@H](NC(=O)[C@H](N)c3ccccc3)C(=O)N2[C@H]1C(=O)O [ampicillin]	6 (≈ 17.2 µM)	0.001	Approximately 10%	–	–
O=C(O)c1cn(C2CC2)c2cc(N3CCNCC3)c(F)cc2c1=O [ciprofloxacin]	0.03 (≈ 0.0905 µM)	0.001	Approximately 10%	–	–
NC[C@H]1O[C@H](O[C@H]2[C@H](O)[C@@H](O[C@H]3O[C@H](CO)[C@@H](O)[C@H](N)[C@H]3O)[C@H](N)C[C@@H]2N)[C@H](O)[C@@H](O)[C@@H]1O [kanamycin]	8 (≈ 16.5 µM)	0.001	10%	–	viability decreased ([2]; kanamycin 24 μg/mL (3 MIC), 10 hours): 100,000 fold; survival rate, times higher than that of wild-type E. coli ([3]; 3 MIC kanamycin, 10 hours): 10,000 times; peak serum concentration ([4]; clinical): 20 µg/mL and 18 to 20 µg/mL
CO[C@@]12[C@H](COC(N)=O)C3=C(C(=O)C(C)=C(N)C3=O)N1C[C@@H]1N[C@@H]12 [mitomycin C]	–	–	–	0.8 (≈ 2.39 µM)	–
polymyxin	–	–	–	–	average serum concentration [4, 8]: approximately 2.8 μg/mL; serum concentration range [4, 8]: 680 to 4880 ng/mL
polymyxin B	–	0.001	Approximately 10%	0.3	DiSC3(5) fluorescence signal (membrane potential) [5]: no significant enhancement of DiSC3(5) fluorescence signal; PI fluorescence (membrane disruption) ([6]; after 2 hours): majority of cells showed no increase in PI fluorescence; PI fluorescence (membrane disruption) ([6]; after 4 hours): only a minimal number of cells exhibiting detectable signals
